According to patent US9873702B2, “Heterocyclic compounds as biogenic amine transport modulators” (Southern Research Institute, priority 2014, dated 2018):
“Also recorded” adds a separate entry of the source. Like-named read-outs stand apart in the source and are kept apart here.

Target: dopamine transporter (DAT) (Rattus norvegicus, UniProt P23977)
Test: Dopamine reuptake ([^3H]dopamine uptake) inhibition in rat brain synaptosomes
Conditions: for efficacy of [^3H]DA (DAT) uptake inhibition, in words: partial versus full inhibition
[1] = DA Uptake EC50 (nM ± SD), rat caudate synaptosomes, 5 nM [^3H]dopamine, 15 min, 25° C., three experiments pooled
[2] = read-out: DA Uptake Emax (% I ± SD)
[3] = One-Site IC50 (nM), [^3H]DA uptake dose-response curve fit to one-component equation
[4] = Two-Site IC50-1 (nM), [^3H]DA uptake dose-response curve fit to two-component equation, component 1
[5] = Two-Site IC50-2 (nM), [^3H]DA uptake dose-response curve fit to two-component equation, component 2
[6] = read-out: Two-Site Emax-1 (% I)
[7] = read-out: Two-Site Emax-2 (% I)

Sequence of dopamine transporter (DAT) (P23977 whole entry): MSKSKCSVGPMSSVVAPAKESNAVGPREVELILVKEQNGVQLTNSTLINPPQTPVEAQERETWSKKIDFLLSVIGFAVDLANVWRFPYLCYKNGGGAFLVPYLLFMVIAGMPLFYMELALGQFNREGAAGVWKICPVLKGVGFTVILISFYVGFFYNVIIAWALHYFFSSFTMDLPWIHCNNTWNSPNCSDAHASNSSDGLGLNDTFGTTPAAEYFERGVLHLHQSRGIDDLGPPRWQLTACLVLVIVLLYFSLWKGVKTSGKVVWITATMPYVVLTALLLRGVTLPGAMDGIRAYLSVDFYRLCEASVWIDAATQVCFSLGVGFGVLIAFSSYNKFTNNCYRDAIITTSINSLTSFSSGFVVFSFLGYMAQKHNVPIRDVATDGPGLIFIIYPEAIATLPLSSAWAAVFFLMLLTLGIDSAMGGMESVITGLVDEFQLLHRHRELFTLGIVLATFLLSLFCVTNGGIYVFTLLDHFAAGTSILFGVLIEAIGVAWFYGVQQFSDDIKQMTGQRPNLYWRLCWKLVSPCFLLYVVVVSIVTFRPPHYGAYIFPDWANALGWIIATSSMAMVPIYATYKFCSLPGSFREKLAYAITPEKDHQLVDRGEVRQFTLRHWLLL

Row | IC50 [1] | Emax [2] | Structure (SMILES) | also measured
1 | 229 ± 54 nM | 47 ± 2% | c1ccc(C(CNc2nc(-c3ccc4nnnn4c3)nc3ccccc23)c2ccccc2)cc1 [compound 108, N-(2,2-Diphenylethyl)-2-(Tetrazolo[1,5-A]Pyridin-6-yl)Quinazolin-4-Amine] | 
2 | 34 ± 6 nM | 74 ± 2% | Cc1c(-c2nc(NCC(c3ccccc3)c3ccccc3)c3ccccc3n2)ccc2nccn12 [compound 195, N N-(2,2-Diphenylethyl)-2-(5-Methylimidazo[1,2-A]Pyridin-6-yl)Quinazolin-4-Amine] | 
3 | 55 ± 10 nM | 69 ± 2% | c1ccc(C(CNc2nc(-c3cnc4nccn4c3)nc3ccccc23)N2CCOCC2)cc1 (stereo not drawn) [compound 128, 2-(Imidazo[1,2-A]Pyrimidin-6-yl)-N-(2-Morpholino-2-Phenylethyl)Quinazolin-4-Amine] | 
4 | 239 ± 84 nM | 93 ± 7% | c1ccc(C(CNc2nc(-c3c[nH]c4ccccc34)nc3ccccc23)c2ccccc2)cc1 [compound 82, N-(2,2-Diphenylethyl)-2-(1H-Indol-3-yl)Quinazolin-4-Amine] | 
5 |  |  | CN(C)c1ccc(-c2nc(NCC(c3ccccc3)N3CCOCC3)c3ccccc3n2)cc1 (stereo not drawn) [SRI-30835] | IC50 [3]: 15 ± 7 nM; IC50 [4]: 6 ± 0.9 nM; IC50 [5]: 4000 ± 1330 nM; efficacy of [^3H]DA (DAT) uptake inhibition, in words: partially inhibit; Emax (read-out: One-Site Emax (% I)): 75 ± 5%; Emax [6]: 57 ± 2%; Emax [7]: 42 ± 4%
6 | 31 ± 7 nM | 72 ± 3% | c1ccc(C(CNc2nc(-c3cnc4nccn4c3)nc3ccccc23)c2cccnc2)cc1 (stereo not drawn) [compound 134, 2-(Imidazo[1,2-A]Pyrimidin-6-yl)-N-(2-Phenyl-2-(Pyridin-3-yl)Ethyl)Quinazolin-4-Amine] | 
7 | 299 ± 45 nM | 70 ± 2% | c1ccc2c(NCC(c3ccncc3)c3ccncc3)nc(-c3cnc4nccn4c3)nc2c1 [compound 176, N-(2,2-Di(Pyridin-4-yl)Ethyl)-2-(Imidazo[1,2-A]Pyrimidin-6-yl)Quinazolin-4-Amine] | 
8 | 1.6 ± 0.3 nM | 74 ± 2% | Cc1cc2nccn2cc1-c1nc(NCC(c2ccccc2)C2CCCC2)c2ccccc2n1 (stereo not drawn) [compound 194, N-(2-Cyclopentyl-2-Phenylethyl)-2-(7-Methylimidazo[1,2-A]pyridin-6-yl)Quinazolin-4-Amine] | 
9 | 92 ± 21 nM | 92 ± 4% | c1ccc(C(CNc2nc(-c3cccn4ccnc34)nc3ccccc23)c2ccccc2)cc1 [compound 147, N-(2,2-Diphenylethyl)-2-(Imidazo[1,2-A]pyridin-8-yl)Quinazolin-4-Amine] | 
10 | 11 ± 2 nM | 77 ± 2% | c1ccc(C(CNc2nc(-c3ccc4nccn4c3)nc3ccccc23)c2ccncc2)cc1 (stereo not drawn) [compound 106, 2-(Imidazo[1,2-A]Pyridin-6-yl)-N-(2-Phenyl-2-(Pyridin-4-yl)Ethyl)Quinazolin-4-Amine] | 
11 |  | 75 ± 3% | c1ccc(C(CNc2nc(-c3ccc4c(c3)CCN4)nc3ccccc23)c2ccccc2)cc1 [compound 84, N-(2,2-Diphenylethyl)-2-(Indolin-5-yl)Quinazolin-4-Amine] | IC50 [3]: 18 ± 4 nM; IC50 [4]: 1.8e+06 nM; IC50 [5]: 1.8e+06 nM; efficacy of [^3H]DA (DAT) uptake inhibition, in words: partially inhibit; also recorded: partial inhibitors; Emax (read-out: One-Site Emax (% I)): 75 ± 3%; Emax [6]: 37%; Emax [7]: 37%
12 | 2.3 ± 0.3 nM | 74 ± 2% | FC(F)(F)c1cc2nccn2cc1-c1nc(NCC(c2ccccc2)c2ccccc2)c2ccccc2n1 [compound 200, N-(2,2-Diphenylethyl)-2-(7-(Trifluoromethyl)Imidazo[1,2-a]Pyridin-6-yl)Quinazolin-4-Amine] | 
13 | 49 ± 9 nM | 71 ± 2% | CN1CCN(C(CNc2nc(-c3cnc4nccn4c3)nc3ccccc23)c2ccccc2)CC1 (stereo not drawn) [compound 129, 2-(Imidazo[1,2-A]Pyrimidin-6-yl)-N-(2-(4Methylpiperazin-1-yl)-2-Phenylethyl)Quinazolin-4-Amine] | 
14 | 553 ± 82 nM | 73 ± 2% | c1ccc(C(CNc2nc(-c3ccc4nccn4c3)nc3ccccc23)c2ncccn2)cc1 (stereo not drawn) [compound 103, 2-(Imidazo[1,2-A]Pyridin-6-yl)-N-(2-Phenyl-2-(Pyrimidin-2-yl)Ethyl)Quinazolin-4-Amine] | 
15 | 60 nM | 100% | c1ccc(C(CNc2nc(N3CCCCC3)nc3ccccc23)c2ccccc2)cc1 [compound 4, N-(2,2-Diphenylethyl)-2-(piperidin-1-yl)quinazolin-4-amine] | 
16 | 1.7 ± 0.2 nM | 72 ± 1% | Cc1cc2nccn2cc1-c1nc(NCC(c2ccc(F)cc2)c2ccc(F)cc2)c2ccccc2n1 [compound 203, N-(2,2-Bis(4-Fluorophenyl)Ethyl)-2-(7-Methylimidazo[1,2-a]Pyridin-6-yl)Quinazolin-4-Amine] | 
17 | 385 ± 89 nM | 72 ± 4% | Nc1ncc(-c2nc(NCC(c3ccccc3)c3ccccn3)c3ccccc3n2)cn1 (stereo not drawn) [compound 95, 2-(2-Aminopyrimidin-5-yl)-N-(2-Phenyl-2-(Pyridin-2-yl)Ethyl)Quinazolin-4-Amine] | 
18 | 443 ± 88 nM | 82 ± 3% | c1ccc(C(CCNc2nc(-c3cccnc3)nc3ccccc23)c2ccccc2)cc1 [compound 1, N-(3,3-Diphenylpropyl)-2-(pyridin-3-yl)quinazolin-4-amine] | 
19 | 89 ± 27 nM | 81 ± 4% | c1ccc(C(CNc2nc(-c3cnc4nccn4c3)nc3ccccc23)N2CCCCC2)cc1 (stereo not drawn) [compound 120, 2-(Imidazo[1,2-A]Pyrimidin-6-yl)-N-(2-Phenyl-2-(Piperidin-1-yl)Ethyl)Quinazolin-4-Amine] | 
20 | 165 ± 15 nM | 69 ± 1% | COCc1c[nH]c2ccc(-c3nc(NCC(c4ccccc4)c4ccccc4)c4ccccc4n3)cc12 [compound 116, N-(2,2-Diphenylethyl)-2-(3-(Methoxymethyl)-1H-Indol-5-yl)Quinazolin-4-Amine] | 
21 | 416 ± 22 nM | 83 ± 1% | c1ccc(C(CCNc2nc(-c3ccsc3)nc3ccccc23)c2ccccc2)cc1 [compound 5, N-(3,3-Diphenylpropyl)-2-(thiophen-3-yl)quinazolin-4-amine] | 
22 | 83 ± 27 nM | 58 ± 3% | c1ccc(C(CNc2nc(-c3ccc4nccn4c3)nc3ccccc23)n2ccnc2)cc1 (stereo not drawn) [compound 115, N-(2-(1H-Imidazol-1-yl)-2-Phenylethyl)-2-(Imidazo[1,2-A]Pyridin-6-yl)Quinazolin-4-Amine] | 
23 | 150 nM | 100% | c1ccc(C(Nc2nc(N3CCCCC3)nc3ccccc23)c2ccccc2)cc1 [compound 3, N-Benzhydryl-2-(piperidin-1-yl)quinazolin-4-amine] | 
24 | 208 ± 34 nM | 92 ± 3% | Cc1ccc(-c2nc(NCC(c3ccccc3)c3ccccc3)c3ccccc3n2)c2nccn12 [compound 197, N-(2,2-Diphenylethyl)-2-(5-Methylimidazo[1,2-A]pyridin-8-yl)Quinazolin-4-Amine] | 
25 | 9.1 ± 2.1 nM | 73 ± 3% | c1ccc(C(CNc2nc(-c3cnc4ccnn4c3)nc3ccccc23)c2ccccc2)cc1 [compound 199, N-(2,2-Diphenylethyl)-2-(Pyrazolo[1,5-a]Pyrimidin-6-yl)Quinazolin-4-Amine] | 
26 | 14 ± 5 nM | 77 ± 4% | Cc1cc2nccn2cc1-c1nc(NCC(c2ccccc2)N(C)C)c2ccccc2n1 (stereo not drawn) [compound 196, N1,N1-Dimethyl-N2-(2-(7-Methylimidazo[1,2-A]Pyridin-6-yl)Quinazolin-4-yl)-1-Phenylethane-1,2-Diamine] | 
